Laboratory results taken from patent EP4610269A1, “UROKINASE PLASMINOGEN ACTIVATOR SURFACE RECEPTOR (UPAR) LIGANDS FOR DIAGNOSTIC OR THERAPEUTIC USE” (3B Pharmaceuticals GmbH, priority 2024, dated 2025).
Read-outs that look alike come from different tables or passages of the source. Where a SMILES comes first, the peptide text is derived from it. Bridges are numbered along the chain shown (N, C = ends). [ ]: non-standard residue; d: D form. The star is where a group is joined. DOTA = O=C(O)CN1CCN(CC(=O)O)CCN(CC(=O)*)CCN(CC(=O)O)CC1; Pro(cis-4-F) = O=C(O)[C@@H]1C[C@H](F)CN1; Phe(2-Cl) = N[C@@H](Cc1ccccc1Cl)C(=O)O; Dopa = N[C@@H](Cc1ccc(O)c(O)c1)C(=O)O; Propanoyl(3-NMe2) = CN(C)CCC(=O)*; Ala(cPr) = N[C@@H](CC1CC1)C(=O)O; Hyp = O=C(O)[C@@H]1C[C@@H](O)CN1; Pentanoyl(4-Me) = CC(C)CCC(=O)*; Cha = N[C@@H](CC1CCCCC1)C(=O)O; Cit = NC(=O)NCCC[C@H](N)C(=O)O; Butoxycarbonyl = CCCCOC(=O)*; NMeNle = CCCC[C@H](NC)C(=O)O; NMeC = CN[C@@H](CS)C(=O)O; Nle = CCCC[C@H](N)C(=O)O; dDap = NC[C@@H](N)C(=O)O; Dab = NCC[C@H](N)C(=O)O; Nva = CCC[C@H](N)C(=O)O; Pentanoyl = CCCCC(=O)*

Assays:
[1] = molecular target: T1, uPAR-expressing HEC-265 human endometrial adenocarcinoma cells (Homo sapiens, UniProt Q03405); experiment: Competitive FACS binding assay; details: pIC50 category of FACS binding
T1 construct: Cell surface uPAR-expressing HEC-265 human endometrial adenocarcinoma cells; host or cells: HEC-265
T1 sequence (Q03405 23-335): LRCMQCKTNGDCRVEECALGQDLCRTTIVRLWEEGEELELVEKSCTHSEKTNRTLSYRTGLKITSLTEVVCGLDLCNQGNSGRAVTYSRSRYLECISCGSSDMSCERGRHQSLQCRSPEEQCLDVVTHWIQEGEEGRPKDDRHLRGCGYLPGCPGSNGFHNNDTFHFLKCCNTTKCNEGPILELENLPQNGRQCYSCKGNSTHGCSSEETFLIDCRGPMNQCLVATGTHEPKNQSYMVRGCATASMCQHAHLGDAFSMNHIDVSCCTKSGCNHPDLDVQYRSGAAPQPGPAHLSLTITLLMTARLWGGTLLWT
Outline: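 HEC-265 cells incubated 1 h at 4 °C with 10 nM biotinylated uPAR peptide tracer plus increasing test compound, then stained with APC-streptavidin on ice. Median APC fluorescence by flow cytometry; 4PL fit gives pIC50.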

human uPAR (uPAR-Fc) = molecular target: T2, human uPAR (uPAR-Fc) (Homo sapiens, UniProt Q03405); experiment: Surface plasmon resonance (SPR) assay, single cycle kinetics; format: binding; details: pKD category for uPAR SPR activity assay, uPAR-Fc on Protein A-Chip, 25°C, read-out: pKD CAT (converted)
T2 construct: comprising amino acids Leu23-Arg303 according to UniProt entry Q03405.1; purchased R&D Systems 10378-UK-100
T2 sequence (Q03405 23-303): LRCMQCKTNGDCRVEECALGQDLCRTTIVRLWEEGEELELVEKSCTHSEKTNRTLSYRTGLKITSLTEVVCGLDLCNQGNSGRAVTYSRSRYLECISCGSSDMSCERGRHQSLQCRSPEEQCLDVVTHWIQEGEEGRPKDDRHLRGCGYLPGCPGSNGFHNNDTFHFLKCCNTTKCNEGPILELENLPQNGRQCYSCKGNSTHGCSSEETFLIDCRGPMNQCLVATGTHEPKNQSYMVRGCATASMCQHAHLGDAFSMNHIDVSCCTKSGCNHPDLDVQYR
Outline: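 uPAR-Fc (Leu23-Arg303 extracellular domains, human IgG1 Fc) captured on Protein A chip to ~2000 RU; single-cycle kinetics at 25°C in HEPES running buffer pH 7.4 with 0.1% DMSO. KD from double-referenced sensorgrams fitted to 1:1 Langmuir model, reported as pKD.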

SMILES	IC50 [1] [nM]	Kd (human uPAR (uPAR-Fc); single cycle kinetics) [nM]	Kd (human uPAR (uPAR-Fc)) [nM]
CCCCC(=O)N[C@H]1CSSC[C@@H](C(N)=O)NC(=O)[C@H](CC2CC2)NC(=O)[C@H]([C@@H](C)CC)NC(=O)[C@@H]2C[C@@H](O)CN2C(=O)[C@@H]2CCCN2C(=O)[C@H](Cc2ccccc2)NC(=O)[C@H](Cc2ccc(O)cc2)NC(=O)[C@H](CCC(N)=O)NC(=O)[C@H](CCCNC(=N)N)NC1=O [UPAR-379, Pent-[Cys-Arg-Gln-Tyr-Phe-Pro-Hyp-Ile-Cpra-Cys]-NHz] (Pentanoyl-CRQYFP[Hyp]I[Ala(cPr)]C-NH2; disulfide 1-10)	≤ 10	< 1.58	–
CCCCC(=O)N[C@H]1CSSC[C@@H](C(N)=O)NC(=O)[C@H](CCC)NC(=O)[C@H]([C@@H](C)CC)NC(=O)[C@@H]2C[C@@H](O)CN2C(=O)[C@@H]2CCCN2C(=O)[C@H](Cc2ccccc2)NC(=O)[C@H](CC2CCCCC2)NC(=O)[C@H](CCC(N)=O)NC(=O)[C@H](CCCNC(=N)N)NC1=O [UPAR-373, Pent-[Cys-Arg-Gln-Cha-Phe-Pro-Hyp-Ile-Nva-Cys]-NH2] (Pentanoyl-CRQ[Cha]FP[Hyp]I[Nva]C-NH2; disulfide 1-10)	≤ 10	< 1.58	–
CCCCC(=O)N[C@H]1CSSC[C@@H](C(N)=O)NC(=O)[C@H](CCC)NC(=O)[C@H]([C@@H](C)CC)NC(=O)[C@@H]2C[C@@H](O)CN2C(=O)[C@@H]2CCCN2C(=O)[C@H](Cc2ccccc2)NC(=O)[C@H](Cc2ccc(O)c(O)c2)NC(=O)[C@H](CCCCNC(=O)CN2CCN(CC(=O)O)CCN(CC(=O)O)CCN(CC(=O)O)CC2)NC(=O)[C@H](CCCNC(N)=O)NC1=O [UPAR-399, Pent-[Cys-Cit-Lys(DOTA)-Dopa-Phe-Pro-Hyp-Ile-Nva-Cys]-NH2] (Pentanoyl-C[Cit]K(DOTA)[Dopa]FP[Hyp]I[Nva]C-NH2; disulfide 1-10)	≤ 10	< 1.58	–
CCCC[C@H](NC)C(=O)N[C@H]1CSSC[C@@H](C(N)=O)NC(=O)[C@H](CCC)NC(=O)[C@H]([C@@H](C)CC)NC(=O)[C@@H]2C[C@@H](O)CN2C(=O)[C@@H]2C[C@H](F)CN2C(=O)[C@H](Cc2ccccc2)NC(=O)[C@H](Cc2ccc(O)cc2)NC(=O)[C@H](CCCCNC(=O)CN2CCN(CC(=O)O)CCN(CC(=O)O)CCN(CC(=O)O)CC2)NC(=O)[C@H]([C@@H](C)O)NC1=O [UPAR-428, H-Nmb-[Cys-Thr-Lys(DOTA)-Tyr-Phe-4Cfp-Hyp-Ile-Nva-Cys]-NH2] (H-[NMeNle]CTK(DOTA)YF[Pro(cis-4-F)][Hyp]I[Nva]C-NH2; disulfide 2-11)	≤ 10	< 1.58	–
CCC[C@@H]1NC(=O)[C@H]([C@@H](C)CC)NC(=O)[C@@H]2C[C@@H](O)CN2C(=O)[C@@H]2CCCN2C(=O)[C@H](Cc2ccccc2)NC(=O)[C@H](Cc2ccc(O)cc2)NC(=O)[C@H](CCC(N)=O)NC(=O)[C@H](CCCNC(N)=O)NC(=O)[C@@H](N(C)C(=O)[C@H](CC(C)C)NC(=O)CN2CCN(CC(=O)O)CCN(CC(=O)O)CCN(CC(=O)O)CC2)CSSC[C@@H](C(N)=O)NC1=O [UPAR-142, DOTA-Leu-[Nmc-Cit-Gln-Tyr-Phe-Pro-Hyp-Ile-Nva-Cys]-NH2] ({DOTA}-L[NMeC][Cit]QYFP[Hyp]I[Nva]C-NH2; disulfide 2-11)	≥ 126	–	10 to 100
CCCC[C@@H]1NC(=O)[C@H](CCCNC(=N)N)NC(=O)[C@@H](NC(=O)[C@H](CC(C)C)NC(=O)[C@H](CC(=O)O)NC(C)=O)CSSC[C@@H](C(N)=O)NC(=O)[C@H](CC(C)C)NC(=O)[C@H]([C@@H](C)CC)NC(=O)[C@H](C)NC(=O)[C@@H]2CCCN2C(=O)[C@H](Cc2ccccc2)NC(=O)[C@@H](Cc2ccc(O)cc2)NC1=O [UPAR-198, Ac-Asp-Leu-[Cys-Arg-Nle-tyr-Phe-Pro-Ala-Ile-Leu-Cys]-NH2] (Ac-DLCR[Nle][dY]FPAILC-NH2; disulfide 3-12)	≥ 126	–	> 100
CCCCOC(=O)N[C@H]1CSSC[C@@H](C(N)=O)NC(=O)[C@H](CCC)NC(=O)[C@H]([C@@H](C)CC)NC(=O)[C@@H]2C[C@@H](O)CN2C(=O)[C@@H]2C[C@H](F)CN2C(=O)[C@H](Cc2ccccc2)NC(=O)[C@H](Cc2ccc(O)cc2)NC(=O)[C@H](CCNC(=O)CN2CCN(CC(=O)O)CCN(CC(=O)O)CCN(CC(=O)O)CC2)NC(=O)[C@H]([C@@H](C)O)NC1=O [UPAR-228, Butoc-[Cys-Thr-Dab(DOTA)-Tyr-Phe-4Cfp-Hyp-Ile-Nva-Cys]-NH2] (Butoxycarbonyl-CT[Dab](DOTA)YF[Pro(cis-4-F)][Hyp]I[Nva]C-NH2; disulfide 1-10)	≤ 10	–	< 1.58
CC[C@H](C)[C@@H]1NC(=O)[C@@H]2C[C@@H](O)CN2C(=O)[C@@H]2CCCN2C(=O)[C@H](Cc2ccccc2)NC(=O)[C@H](Cc2ccc(O)cc2)NC(=O)[C@H](CCCCNC(=O)CN2CCN(CC(=O)O)CCN(CC(=O)O)CCN(CC(=O)O)CC2)NC(=O)[C@H](CCCNC(N)=O)NC(=O)[C@@H](NC(=O)CCC(C)C)CSSC[C@@H](C(N)=O)NC(=O)[C@H](CC(C)C)NC1=O [UPAR-240, iHex-[Cys-Cit-Lys(DOTA)-Tyr-Phe-Pro-Hyp-Ile-Leu-Cys]-NH2] ({Pentanoyl(4-Me)}-C[Cit]K(DOTA)YFP[Hyp]ILC-NH2; disulfide 1-10)	≤ 10	–	< 1.58
CC[C@H](C)[C@@H]1NC(=O)[C@@H](C)NC(=O)[C@@H]2CCCN2C(=O)[C@H](Cc2ccccc2)NC(=O)[C@H](Cc2ccc(O)cc2)NC(=O)[C@H](CCC(N)=O)NC(=O)[C@H](CCCNC(N)=O)NC(=O)[C@@H](NC(C)=O)CSSC[C@@H](C(N)=O)NC(=O)[C@H](CC(C)C)NC1=O [UPAR-243, Ac-[Cys-Cit-Gln-Tyr-Phe-Pro-ala-Ile-Leu-Cys]-NH2] (Ac-C[Cit]QYFP[dA]ILC-NH2; disulfide 1-10)	≥ 126	–	> 100
CCCCC(=O)N[C@H]1CSSC[C@@H](C(N)=O)NC(=O)[C@H](CCC)NC(=O)[C@H]([C@@H](C)CC)NC(=O)[C@@H](CN)NC(=O)[C@@H]2CCCN2C(=O)[C@H](Cc2ccccc2)NC(=O)[C@H](Cc2ccc(O)cc2)NC(=O)[C@H](CCC(N)=O)NC(=O)[C@H](CCCNC(=N)N)NC1=O [UPAR-330, Pent-[Cys-Arg-Gln-Tyr-Phe-Pro-dap-Ile-Nva-Cys]-NH2] (Pentanoyl-CRQYFP[dDap]I[Nva]C-NH2; disulfide 1-10)	≤ 10	–	< 1.58
CCCC[C@@H]1NC(=O)[C@H](CCCNC(=N)N)NC(=O)[C@@H](NC(=O)[C@H](CC(C)C)NC(=O)[C@H](CC(=O)O)NC(C)=O)CSSC[C@@H](C(N)=O)NC(=O)[C@H](CC(C)C)NC(=O)[C@H]([C@@H](C)CC)NC(=O)[C@H](C)NC(=O)[C@@H]2CCCN2C(=O)[C@@H](Cc2ccccc2)NC(=O)[C@H](Cc2ccc(O)cc2)NC1=O [UPAR-230, Ac-Asp-Leu-[Cys-Arg-Nle-Tyr-phe-Pro-Ala-Ile-Leu-Cys]-NH2] (Ac-DLCR[Nle]Y[dF]PAILC-NH2; disulfide 3-12)	≥ 126	–	> 100
CC[C@H](C)[C@@H]1NC(=O)[C@@H](C)NC(=O)[C@@H]2CCCN2C(=O)[C@H](Cc2ccccc2)NC(=O)[C@H](Cc2ccc(O)cc2)NC(=O)[C@H](CCC(N)=O)NC(=O)[C@H](CCCNC(N)=O)NC(=O)[C@@H](NC(=O)CCN(C)C)CSSC[C@@H](C(N)=O)NC(=O)[C@H](CC(C)C)NC1=O [UPAR-333, Dmba-[Cys-Cit-Gln-Tyr-Phe-Pro-ala-Ile-Leu-Cys]-NH2] ({Propanoyl(3-NMe2)}-C[Cit]QYFP[dA]ILC-NH2; disulfide 1-10)	39.8 to 100	–	> 100
CC[C@H](C)[C@@H]1NC(=O)[C@H](C)NC(=O)[C@@H]2CCCN2C(=O)[C@H](Cc2ccccc2)NC(=O)[C@H](Cc2ccc(O)cc2)NC(=O)[C@H](CCC(N)=O)NC(=O)[C@H](CCCNC(=N)N)NC(=O)[C@@H](NC(=O)[C@H](CC(C)C)NC(C)=O)CSSC[C@@H](C(N)=O)NC(=O)[C@H](CC(C)C)NC1=O [UPAR-381, Ac-Leu-[Cys-Arg-Gln-Tyr-Phe-Pro-Ala-Ile-Leu-Cys]-NH2] (Ac-LCRQYFPAILC-NH2; disulfide 2-11)	≤ 10	< 1.58	–
CC[C@H](C)[C@@H]1NC(=O)[C@@H](C)NC(=O)[C@@H]2CCCN2C(=O)[C@H](Cc2ccccc2)NC(=O)[C@H](Cc2ccc(O)cc2)NC(=O)[C@H](CCC(=O)O)NC(=O)[C@H](CCCNC(N)=O)NC(=O)[C@@H](NC(=O)CCC(C)C)CSSC[C@@H](C(N)=O)NC(=O)[C@H](CC(C)C)NC1=O [UPAR-255, iHex-[Cys-Cit-Glu-Tyr-Phe-Pro-ala-Ile-Leu-Cys]-NH2] ({Pentanoyl(4-Me)}-C[Cit]EYFP[dA]ILC-NH2; disulfide 1-10)	≤ 10	–	< 1.58
CCCCC(=O)N[C@H]1CSSC[C@@H](C(N)=O)NC(=O)[C@H](CCC)NC(=O)[C@H]([C@@H](C)CC)NC(=O)[C@@H]2C[C@@H](O)CN2C(=O)[C@@H]2CCCN2C(=O)[C@H](Cc2ccccc2Cl)NC(=O)[C@H](Cc2ccc(O)cc2)NC(=O)[C@H](CCCCNC(=O)CN2CCN(CC(=O)O)CCN(CC(=O)O)CCN(CC(=O)O)CC2)NC(=O)[C@H](CCCNC(N)=O)NC1=O [UPAR-450, Pent-[Cys-Cit-Lys(DOTA)-Tyr-Ocf-Pro-Hyp-Ile-Nva-Cys]-NH2] (Pentanoyl-C[Cit]K(DOTA)Y[Phe(2-Cl)]P[Hyp]I[Nva]C-NH2; disulfide 1-10)	≤ 10	< 1.58	–
